Measurements taken from patent US20240287609A1, “COMPOSITIONS AND METHODS FOR LARGE-SCALE IN VIVO GENETIC SCREENING” (UNIVERSITY OF UTAH RESEARCH FOUNDATION, priority 2021, published 2024).
“Also recorded” adds a separate entry of the source.

Test system: zebrafish larvae
Assay: Light- and Optovin-induced motor response assay
Type: in vivo, zebrafish (Danio rerio)
Conditions: 10 μM optovin, wild-type zebrafish, pulsed violet light
Protocol: Light- and Optovin-induced motor response assay. Zebrafish larvae at 3 dpf were arrayed in 96-well plates and treated with 10 μM optovin (Fisher Scientific, cat #490110) in a total volume of 200 μL E3 media. Treated larvae were incubated at […] for 1 h in dark. […] Movement of the larvae was tracked and quantitated following 5×1s pulse of violet light after 10 s interval in the dark.
Identifying the protein targets of small molecules remains one of the major challenges in chemical biology and pharmacology. Herein it was hypothesized that MIC-Drop could be used to identify the targets of small molecules that result in complex behavioral phenotypes in the zebrafish. As proof-of-principle, optovin was utilized, a small molecule agonist of the trpa1b channel that allows photo-activatable behavioral modifications in zebrafish. Droplets targeting the trpa1b channel were spiked into a collection of droplets containing scrambled gRNAs in a 1:20 ratio (FIG. 7B). Droplet-injected embryos were arrayed into 96-well plates, treated with optovin and exposed to violet light flashes while simultaneously recording embryo movement. […] Thus, the MIC-Drop platform was able to be used to identify the target of optovin from among a library of non-target candidates.

Question: `Cc1cc(/C=C2/SC(=S)NC2=O)c(C)n1-c1cccnc1` [optovin] was tested. Which “motor response of zebrafish after treatment” value did it give?
Answer: The value was “light-dependent motor response; also recorded: light-dependent motion response”.
